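These data come from cells grown in 96-well plates and exposed to compound for 48 hours at five concentrations. The concentration for 50% growth inhibition is given as GI50. Definition used: TGI = concentration required for complete inhibition of growth.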

Among the test systems are A498 renal; SK-OV-3 ovarian; UACC-257 melanoma; OVCAR-5 ovarian; SW-620 colon; KM12 colon; 786-0 renal; MDA-MB-231 breast; RPMI-8226 leukemia; NCI/ADR-RES ovarian.
Test in all cases: growth of human tumour cells (NCI), 48 h

For `COc1c(B(O)O)cc(F)cc1-c1nc2ccc3[nH]ncc3c2c2c1CCCC2`, the GI50 with A498 renal was 0.0664 µM; in the assay on SK-OV-3 ovarian, 1.13 µM; in the assay with UACC-257 melanoma, 3.65 µM; in the assay with OVCAR-5 ovarian it was 2.46 µM; in the assay with SW-620 colon, 0.66 µM; in the assay with KM12 colon it was 1.26 µM. For the same compound, the GI50 with 786-0 renal is 0.279 µM; in the assay with MDA-MB-231 breast it was under 0.01 µM; with RPMI-8226 leukemia, 1.12 µM; with NCI/ADR-RES ovarian, 2.03 µM. The TGI in the assay on A498 renal was 2.52 µM; in the assay with SK-OV-3 ovarian it was 13.9 µM; in the assay on UACC-257 melanoma, 12.5 µM; in the assay on OVCAR-5 ovarian it was 16.9 µM; in the assay with SW-620 colon, 11.2 µM; in the assay on KM12 colon, 7.62 µM. Further, the TGI with 786-0 renal stood at 5.84 µM; in the assay on MDA-MB-231 breast, 15 µM; in the assay with RPMI-8226 leukemia, 5.58 µM; in the assay on NCI/ADR-RES ovarian it was 13.7 µM.
Regarding `COc1ccccc1C(=O)N(C)c1ccc(Cl)c(C(=O)OC(C)C)c1`, the TGI in the assay with A498 renal is over 100 µM; in the assay on SK-OV-3 ovarian, over 100 µM; in the assay on UACC-257 melanoma, over 100 µM; with OVCAR-5 ovarian it was over 100 µM; in the assay on SW-620 colon, over 100 µM; with KM12 colon it was 68.7 µM. Also, the TGI in the assay on 786-0 renal, in the assay on MDA-MB-231 breast, in the assay on RPMI-8226 leukemia and in the assay with NCI/ADR-RES ovarian was over 100 µM each time.
As for `Cc1c([N+](=O)[O-])oc2ccc3ccccc3c12`, the TGI in the assay with A498 renal, in the assay on SK-OV-3 ovarian, in the assay with UACC-257 melanoma, in the assay with OVCAR-5 ovarian, in the assay on SW-620 colon and in the assay with KM12 colon was over 100 µM in each case. Also, the TGI in the assay on 786-0 renal, in the assay on MDA-MB-231 breast, in the assay on RPMI-8226 leukemia and in the assay on NCI/ADR-RES ovarian was over 100 µM in each case.
As for `C=C1C(=O)O[C@H]2[C@H]1CC/C(COC(=O)NCc1ccc(Cn3c(=O)sn(-c4ccccc4)c3=O)cc1)=C\CC[C@@]1(C)O[C@@H]21`, the GI50 in the assay with A498 renal is 3.91 µM; in the assay on SK-OV-3 ovarian, 14.1 µM; in the assay with UACC-257 melanoma it was 1.86 µM; in the assay with OVCAR-5 ovarian, 2.51 µM; with SW-620 colon it was 1.91 µM; in the assay on KM12 colon it was 3.46 µM. Further, the GI50 in the assay on 786-0 renal was 1.81 µM; in the assay on MDA-MB-231 breast it was 1.71 µM; in the assay on RPMI-8226 leukemia, 2.03 µM; in the assay on NCI/ADR-RES ovarian, 19.1 µM. Also, the TGI was 14.5 µM in the assay on A498 renal; 27.4 µM in the assay with SK-OV-3 ovarian; 4.14 µM in the assay on UACC-257 melanoma; 6.73 µM in the assay with OVCAR-5 ovarian; 3.78 µM in the assay on SW-620 colon; 12.7 µM in the assay with KM12 colon. Besides, the TGI is 3.37 µM in the assay with 786-0 renal, 3.52 µM in the assay with MDA-MB-231 breast, 6.26 µM with RPMI-8226 leukemia and 63.3 µM with NCI/ADR-RES ovarian.
`CCSc1ccc(C2C(Br)C(=O)N2c2cc(OC)c(OC)c(OC)c2)cc1` (stereo not given): the GI50 was 0.103 µM in the assay on A498 renal; 0.392 µM in the assay with SK-OV-3 ovarian; 14.3 µM with UACC-257 melanoma; 0.431 µM in the assay with OVCAR-5 ovarian; 0.236 µM with SW-620 colon; 0.202 µM with KM12 colon. In addition, the GI50 in the assay with 786-0 renal was 0.34 µM; in the assay with MDA-MB-231 breast, 0.488 µM; in the assay with RPMI-8226 leukemia it was 0.361 µM; with NCI/ADR-RES ovarian it was 0.125 µM. Further, the TGI was 0.74 µM in the assay on A498 renal; over 100 µM in the assay with SK-OV-3 ovarian; over 100 µM with UACC-257 melanoma; 15.8 µM in the assay with OVCAR-5 ovarian; 20.3 µM in the assay with SW-620 colon; over 100 µM with KM12 colon. The TGI in the assay with 786-0 renal was 13.1 µM; in the assay on MDA-MB-231 breast it was 95.3 µM; in the assay on RPMI-8226 leukemia, 4.37 µM; in the assay on NCI/ADR-RES ovarian, over 100 µM.
With `CC(C)=CCCC(C)C1=C(O)C(=O)C(C)=CC1=O` (stereo not given), the TGI was 35.1 µM with A498 renal; 78.5 µM with SK-OV-3 ovarian; 26.1 µM in the assay on UACC-257 melanoma; 33.5 µM in the assay with OVCAR-5 ovarian; over 50.4 µM with SW-620 colon; 34.6 µM in the assay with KM12 colon. Besides, the TGI with 786-0 renal is 26.9 µM; in the assay with MDA-MB-231 breast, 7.94 µM; with RPMI-8226 leukemia, over 100 µM; with NCI/ADR-RES ovarian it was over 49.1 µM.
Take `COc1cc(-c2csc(NC(=O)Nc3cc(Cl)cc(Cl)c3)n2)cc(OC)c1OC`: the GI50 is 1.42 µM in the assay on A498 renal; 1.86 µM in the assay with SK-OV-3 ovarian; 2.98 µM with UACC-257 melanoma; 2.25 µM in the assay with OVCAR-5 ovarian; 1.97 µM in the assay with SW-620 colon; 2.48 µM in the assay with KM12 colon. Besides, the GI50 in the assay with 786-0 renal is 1.84 µM; in the assay on MDA-MB-231 breast, 1.92 µM; in the assay with RPMI-8226 leukemia it was 2.42 µM; in the assay with NCI/ADR-RES ovarian, 1.85 µM. The TGI with A498 renal amounted to 3.1 µM; in the assay on SK-OV-3 ovarian, 3.75 µM; with UACC-257 melanoma it was 8.81 µM; in the assay on OVCAR-5 ovarian, 6.16 µM; with SW-620 colon, 4.02 µM; in the assay on KM12 colon, 8.14 µM. Besides, the TGI came out at 3.33 µM in the assay with 786-0 renal, 4.12 µM in the assay on MDA-MB-231 breast, 9.24 µM with RPMI-8226 leukemia and 3.94 µM in the assay with NCI/ADR-RES ovarian.
For `O=Nc1c(-c2c(O)[nH]c3ccc(Br)cc23)[nH]c2ccccc12`, the GI50 in the assay on A498 renal is 3.7 µM; in the assay with SK-OV-3 ovarian, 5.22 µM; in the assay on UACC-257 melanoma, 15 µM; in the assay on OVCAR-5 ovarian, 5.14 µM; in the assay on SW-620 colon it was 3.64 µM; in the assay on KM12 colon, 1.14 µM. Besides, the GI50 in the assay on 786-0 renal is 3.25 µM; in the assay on MDA-MB-231 breast it was 3.55 µM; with RPMI-8226 leukemia, 3.56 µM; in the assay with NCI/ADR-RES ovarian it was 4.24 µM. Besides, the TGI is 8.07 µM in the assay on A498 renal; 77.3 µM with SK-OV-3 ovarian; over 100 µM with UACC-257 melanoma; 16.9 µM in the assay with OVCAR-5 ovarian; 9.41 µM in the assay on SW-620 colon; 5.2 µM with KM12 colon. Further, the TGI with 786-0 renal is 14.1 µM; with MDA-MB-231 breast it was 21.8 µM; in the assay with RPMI-8226 leukemia it was 25.5 µM; in the assay on NCI/ADR-RES ovarian, 63.4 µM.

The values above are taken from PubChem BioAssay (NCI).
